Patent US9663439B2, “Aildenafil citrate crystal form O, preparation method and use thereof” (priority 2010, dated 2017)
Structures can show the parent of a compound that is named as a salt.

What was measured:
[1] = system: castrated mice; experiment: Determination for sexual function of castrated mice; assay type: in vivo, Kunming strain mouse; details: 15 mg/kg^−1, ig, 60 min after feeding the drug
Source text: Pharmacodynamic study: determination for sexual function of castrated mice 60 Kunming strain mouse (feeding 60 mouse with 18 g to 22 g weight in the same period) are randomly divided into 6 groups, each 10 mouse per group, wherein, 5 groups of mouse are implemented with bilateral orchidectomy under ether anesthesia state to have castration treatment, and the rest one group of mouse are only implemented with surgical separation, without removing the testicles, which can be taken as a sham operation control group. Each group of mouse are fed in cage, and are tested after 3 d. The sham operation control group and the model control group are fed with 0.5% CMC, […] crystal form O, the positive control group is fed with 6 mg·kg^−1 of Sildenafil; all are ig delivery modes, and the dose volumes are all 10 ml·kg^−1. Putting the single male mice in the cage 60 min after feeding the drug, and adding one female mice in each cage, recording the time that the male mice firstly catches the female mice since the female mice is put in the cage (namely, the capture incubation period), and recording the back-climbing times of the male mice within 30 min.

[2] = Influencing factor test (high temperature, high humidity, illumination); assay type: physicochemical
[3] = High-temperature test (first line; 60+/−2° C.), 0 month
[4] = High-temperature test (first line; 60+/−2° C.), 0.5 month
[5] = High-temperature test (first line; 60+/−2° C.), 1 month
[6] = High-temperature test (second line so named), 0 month
[7] = High-temperature test (second line so named), 0.5 month
[8] = High-temperature test (second line so named), 1 month
[9] = Illumination test (4500 lx+/−500 lx), 0 month
[10] = Illumination test (4500 lx+/−500 lx), 0.5 month
[11] = Illumination test (4500 lx+/−500 lx), 1 month
[12] = high light (4500 lx+/−500 lx), high temperature (60+/−2° C.), high humidity (RH 92.5%), 0 to 1 month

CCCc1nn(C)c2c(=O)[nH]c(-c3cc(S(=O)(=O)N4C[C@@H](C)N[C@@H](C)C4)ccc3OCC)nc12 [Aildenafil citrate crystal form O]
0.05%: Related articles [2, 8]
stable: crystal form stability (appearance, PXRD, infrared absorption spectrum) [2, 12]
excellent chemical stability: chemical stability (related articles and contents) [2, 12]
99.95%: Contents (HPLC area normalization method) [2, 5] | Contents (HPLC area normalization method) [2, 7]
201%: capture incubation period shortened [1]
4.4 times: capture times increased ([1]; within 30 min)
Unchanged: Infrared absorption spectrum [2, 4] | PXRD [2, 4] | Infrared absorption spectrum [2, 5] | PXRD [2, 5] | Infrared absorption spectrum [2, 7] | PXRD [2, 7] | Infrared absorption spectrum [2, 8] | PXRD [2, 8] | Infrared absorption spectrum [2, 10] | PXRD [2, 10] | Infrared absorption spectrum [2, 11] | PXRD [2, 11]
99.96%: Contents (HPLC area normalization method) [2, 3] | Contents (HPLC area normalization method) [2, 4] | Contents (HPLC area normalization method) [2, 6] | Contents (HPLC area normalization method) [2, 8] | Contents (HPLC area normalization method) [2, 9] | Contents (HPLC area normalization method) [2, 10] | Contents (HPLC area normalization method) [2, 11]
0.04%: Related articles [2, 3] | Related articles [2, 4] | Related articles [2, 5] | Related articles [2, 6] | Related articles [2, 7] | Related articles [2, 9] | Related articles [2, 10] | Related articles [2, 11]
White: Appearance [2, 3] | Appearance [2, 4] | Appearance [2, 5] | Appearance [2, 6] | Appearance [2, 7] | Appearance [2, 8] | Appearance [2, 9] | Appearance [2, 10] | Appearance [2, 11]
